Laboratory results taken from patent US6114517A, “Methods of modulating tumor necrosis factor α-induced expression of cell adhesion molecules” (Isis Pharmaceuticals Inc., priority 1998, dated 2000).

Legend:
Format in all cases: cell-based, human
ICAM-1 mRNA = experiment: TNF-α-induced ICAM-1 mRNA, Northern blot; details: 48 hrs recovery, TNF-α two to three hours before RNA analysis
Method: (§1) For determination of mRNA levels by Northern blot, total RNA was prepared from cells by the guanidinium isothiocyanate procedure or by the Qiagen RNAEASY method (Qiagen, Santa Clarita, Calif.) at the indicated times after initiation of oligonucleotide treatment. Northern blot analysis was performed as described in Current Protocols in Molecular Biology (Ausubel, F. M., et al., (eds), 1987, Greene Publishing Assoc. and Wiley Interscience, New York). A glyceraldehyde 3-phosphate dehydrogenase (G3PDH) probe was purchased from Clontech (Palo Alto, Calif., Catalog Number 9805-1). RNA was quantified and normalized to G3PDH mRNA levels using a Molecular Dynamic PHOSPHORIMAGER (Sunnyvale, Calif.).
(§2) Northern blot analysis was carried out to examine whether c-raf and Ha-ras antisense oligonucleotides inhibit the induction of cell adhesion molecules at the transcriptional level. Cells were treated with c-raf (ISIS 12854, SEQ ID NO. 2) or Ha-ras (ISIS 15168, SEQ ID NO. 4) antisense oligonucleotides and allowed to recover for 48 hrs. TNF-α was added two to three hours prior to RNA analysis and Northern blotting was performed with probes specific for E-selectin, ICAM-1, and VCAM-1. The probe for E-selectin was obtained by PCR amplification using primers directed to HUMELAM1A (Genbank Accession No. M24736; SEQ ID NO. 18).

E-selectin mRNA = experiment: TNF-α-induced E-selectin mRNA, Northern blot; details: 48 hrs recovery, TNF-α two to three hours before RNA analysis
Method: as §1, §2

ICAM-1 = experiment: TNF-α-induced ICAM-1 cell surface expression in HMVEC, flow cytometry; details: for maximal inhibition of induction of ICAM-1 by TNF-α: dose response
Method: (§3) Human dermal microvascular cells (HMVEC-d; Clonetics, San Diego, Calif.) were cultivated in endothelial basal media (EBM, Clonetics) supplemented with 10% fetal bovine serum (HyClone, Logan, Utah). Cells were grown in 100 mm petri dishes until 70-80% confluent, then washed with PBS and OPTI-MEM (Life Technologies, Inc., Gaithersburg, Md.). The cells were then incubated in the presence of OPTI-MEM and […] LIPOFECTIN (a 1:1 (w/w) liposome formulation of the cationic lipid N-[1-(2,3-dioleyloxy)propyl]-n,n,n-trimethylammonium chloride (DOTMA), and dioleoyl phosphotidylethanolamine (DOPE) in membrane filtered water (Life Technologies, Gaithersburg, Md.), per 100 nM of oligonucleotide followed by addition of oligonucleotide at the appropriate concentrations.
(§4) The effect of c-raf and Ha-ras antisense oligonucleotide treatment on the induction of E-selectin by TNF-α was examined. HMVEC cells were treated with either the c-raf or Ha-ras antisense compound under dose-response conditions or over time at a single dose level followed by stimulation of E-selectin expression by TNF-α for 5 hours. The cell surface expression of E-selectin was determined by flow cytometry analysis. Following oligonucleotide treatment, cells were detached from the plates and analyzed for surface expression of cell adhesion molecules using a Becton Dickinson (San Jose, Calif.) FACScan. TNF-α and FITC conjugated antibody for E-selectin were obtained from R & D Systems (Minneapolis, Minn.). PE-conjugated antibody for ICAM-1 was obtained from Pharmingen (San Diego, Calif.). VCAM-1 antibody was obtained from Santa Cruz Biotechnology, Santa Cruz, Calif. Cell surface expression was calculated using the mean value of fluorescence intensity using 3,000-5,000 cells stained with the appropriate antibody for each sample and time point. Results are expressed as percentage of control (cell surface expression induced by TNF-α in cells that were not treated with oligonucleotides) based upon mean fluorescence intensity. Basal expression of E-selectin and VCAM-1 is undetectable in the absence of TNF-α whereas a low level of basal expression is detectable for ICAM-1.
(§5) TNF-α induction of ICAM-1 and VCAM-1 in cells treated with c-raf and Ha-ras antisense oligonucleotides was also examined to further define the roles of c-raf and Ha-ras in cytokine signaling. Oligonucleotides were tested, using flow cytometry analysis, as described in Example 4. Results are shown in Table 6 (ICAM-1) and Table 7 (VCAM-1).

VCAM-1 mRNA = experiment: TNF-α-induced VCAM-1 mRNA, Northern blot; details: 48 hrs recovery, TNF-α two to three hours before RNA analysis
Method: as §1, §2

VCAM-1 = experiment: TNF-α-induced VCAM-1 cell surface expression in HMVEC, flow cytometry; details: for Maximum inhibition of induction of VCAM-1 by TNF-α: dose response
Method: as §3, §4, §5

E-selectin = experiment: TNF-α-induced E-selectin cell surface expression in HMVEC, flow cytometry; details: for time of maximal inhibition of E-selectin induction: following antisense treatment
Method: as §3
as §4, with “intensity.” for “intensity. Basal expression of E-selectin and VCAM-1 is undetectable in the absence of TNF-α whereas a low level of basal expression is detectable for ICAM-1.”
The effects of c-raf, Ha-ras, and a E-selectin antisense oligonucleotide on TNF-α-induced E-selectin cell surface expression under kinetic conditions were examined. […] To test this, cells were treated, separately, with antisense oligonucleotides to E-selectin, ICAM-1 and VCAM-1 and allowed to recover prior to TNF-α treatment. […] E-selectin cell surface expression was measured by flow cytometry analysis after 5 hours of TNF-A treatment.

[1] = 25 nM, TNF-α for 5 hours, % of control
[2] = 75 nM, TNF-α for 5 hours, % of control
[3] = 150 nM, TNF-α for 5 hours, % of control
[4] = time course, 12 h/20 h after oligonucleotide treatment, TNF-α 5 hours
[5] = time course, 48 h after oligonucleotide treatment, TNF-α 5 hours
[6] = time course, 72 h after oligonucleotide treatment, TNF-α 5 hours

| Substance | % mRNA Expression (ICAM-1) (ICAM-1 mRNA) | % mRNA Expression (E-selectin) (E-selectin mRNA) | % mRNA Inhibition (E-selectin) (E-selectin mRNA) | % Cell Surface Expression (ICAM-1) (ICAM-1; 20 nM) | % Cell Surface Expression (ICAM-1) (ICAM-1; 50 nM) | % Cell Surface Expression (ICAM-1) (ICAM-1; 100 nM) | % Cell Surface Inhibition (ICAM-1) (ICAM-1; 100 nM) | % mRNA Expression (VCAM-1) (VCAM-1 mRNA) | % Cell Surface Expression (VCAM-1) (VCAM-1; 20 nM) | % Cell Surface Expression (VCAM-1) (VCAM-1; 50 nM) | % Cell Surface Inhibition (VCAM-1) (VCAM-1; 50 nM) | % Cell Surface Expression (VCAM-1) (VCAM-1; 100 nM) | % Cell Surface Inhibition (VCAM-1) (VCAM-1; 100 nM) | % Cell Surface Expression (E-selectin) (E-selectin; [1]) | % Cell Surface Expression (E-selectin) (E-selectin; [2]) | % Cell Surface Expression (E-selectin) (E-selectin; [3]) | % Cell Surface Expression (E-selectin) (E-selectin; [4]) | % Cell Surface Expression (E-selectin) (E-selectin; [5]) | % Cell Surface Expression (E-selectin) (E-selectin; [6]) | % mRNA Inhibition (ICAM-1) (ICAM-1 mRNA) | further results |
| --- | --- | --- | --- | --- | --- | --- | --- | --- | --- | --- | --- | --- | --- | --- | --- | --- | --- | --- | --- | --- | --- |
| ToCoAsGsTsAsAsTsAsGsCsCsCoCoAoCoAoToGoG [ISIS 17552, reference compound] | 101% | 92% | 8% | 102% | 100% | 98% | 2% | 111% | 111% | 97% | 3% | 85% | 15% | 134% | 116% | 116% | 113% | 116% | 111% | – | effect on E-selectin induction (E-selectin; dose response, HMVEC): little to no effect |
| ToCoCoCoGoCsCsTsGsTsGsAsCsAsToGoCoAoToT [ISIS 12854] | 78% | 22% | 78% | 80% | 62% | 57% | 43% | 35% | 46% | 37% | 63% | 28% | 72% | 37% | 26% | 23% | 58% | 23% | 24% | 22% | % Cell Surface Inhibition (ICAM-1) (ICAM-1; 20 nM): 20%; % Cell Surface Inhibition (ICAM-1) (ICAM-1; 50 nM): 38%; maximal inhibition of induction of ICAM-1 by TNF-α (ICAM-1): greater than 40%; % mRNA Inhibition (VCAM-1) (VCAM-1 mRNA): 65%; % Cell Surface Inhibition (VCAM-1) (VCAM-1; 20 nM): 54%; Maximum inhibition of induction of VCAM-1 by TNF-α (VCAM-1): greater than 70%; % Cell Surface Inhibition (E-selectin) (E-selectin; 25 nM, TNF-α for 5 hours): 63%; % Cell Surface Inhibition (E-selectin) (E-selectin; 75 nM, TNF-α for 5 hours): 74%; % Cell Surface Inhibition (E-selectin) (E-selectin; 150 nM, TNF-α for 5 hours): 77%; Maximal inhibition of E-selectin induction (E-selectin; dose response, HMVEC): approximately 80%; time of maximal inhibition of E-selectin induction (E-selectin): 48 h; % Cell Surface Inhibition (E-selectin) (E-selectin; [4]): 42%; % Cell Surface Inhibition (E-selectin) (E-selectin; [5]): 77%; % Cell Surface Inhibition (E-selectin) (E-selectin; [6]): 76% |
| ToCoCsGsTsCsAsTsCsGsCsTsCoCoToCoAoGoGoG [ISIS 15168] | 73% | 13% | 87% | 81% | 62% | 54% | 46% | 29% | 70% | 51% | 49% | 44% | 56% | 72% | 47% | 41% | 87% | 42% | 42% | 27% | % Cell Surface Inhibition (ICAM-1) (ICAM-1; 20 nM): 19%; % Cell Surface Inhibition (ICAM-1) (ICAM-1; 50 nM): 38%; maximal inhibition of induction of ICAM-1 by TNF-α (ICAM-1): greater than 40%; % mRNA Inhibition (VCAM-1) (VCAM-1 mRNA): 71%; % Cell Surface Inhibition (VCAM-1) (VCAM-1; 20 nM): 30%; Maximum inhibition of induction of VCAM-1 by TNF-α (VCAM-1): greater than 50%; % Cell Surface Inhibition (E-selectin) (E-selectin; 25 nM, TNF-α for 5 hours): 28%; % Cell Surface Inhibition (E-selectin) (E-selectin; 75 nM, TNF-α for 5 hours): 53%; % Cell Surface Inhibition (E-selectin) (E-selectin; 150 nM, TNF-α for 5 hours): 59%; Maximal inhibition of E-selectin induction (E-selectin; dose response, HMVEC): ~60%; time of maximal inhibition of E-selectin induction (E-selectin): 48 h; % Cell Surface Inhibition (E-selectin) (E-selectin; [4]): 13%; % Cell Surface Inhibition (E-selectin) (E-selectin; [5]): 58%; % Cell Surface Inhibition (E-selectin) (E-selectin; [6]): 58% |
